Experiments:
Type in all cases: cell-based
Candida glabrata (051) = assay: L-proline-aminopeptidase activity on gelled medium, Example 6; conditions: 0.3 g/l, 24 hours
Procedure: (§1) A gelled medium comprising L-prolyl-9-(4-amino-phenyl)acridine (hereinafter referred to as L-Pro-4-APA) is prepared as follows: 45 g of Sabouraud agar are added to 1 liter of distilled water and then autoclaved. This reaction medium comprises 0.3 g/l of L-Pro-APA also introduced by means of a stock solution in DMSO.
(§2) Microorganisms derived from the applicant's collection were seeded onto this medium, by delimitation as three dials, using a suspension of 0.5 McFarland. The dishes were incubated at 37° C. for 24 hours. The colonies formed were examined visually after incubation for 24 hours. The color of these colonies was noted before and after the addition of a drop of acetic acid, hereinafter referred to as GAA (glacial acetic acid).

Candida krusei (026) = assay: as above; conditions: 0.3 g/l, 24 hours
Procedure: as §1, §2

[1] = system: Candida guilliermondii (046); assay: as above; conditions: 0.3 g/l, 24 hours
Procedure: as §1, §2

[2] = system: Candida parapsilosis (040); assay: as above; conditions: 0.3 g/l, 24 hours
Procedure: as §1, §2

Candida lusitaniae (045) = assay: as above; conditions: 0.3 g/l, 24 hours
Procedure: as §1, §2

Candida albicans (138) = assay: as above; conditions: 0.3 g/l, 24 hours
Procedure: as §1, §2

[3] = system: Listeria monocytogenes (NCTC 11994); assay: glycine-aminopeptidase activity on gelled medium, Example 10; parameters: key to growth: ++ means good growth; + means moderate growth; +/− means poor growth; NG means no growth
Procedure: (§3) A gelled medium comprising this substrate is prepared as follows: 30 mg of the substrate are dissolved (heating) in 10 ml of sterile distilled water. Ten ml of this solution are then added to 90 ml of Columbia agar, kept molten at 50° C.
(§4) Various strains of microorganisms derived from the NCTC collection (National Collection of Type Cultures, Colindale, UK) were seeded onto the media thus obtained according to the multipoint inoculation described in example 8 above.
(§5) The colonies formed were examined visually after incubation for 24 h and 48 h. The color and the growth of these colonies were noted.

[4] = system: Shigella sonnei (NCTC 9774); assay: as above; parameters: key to growth: ++ means good growth; + means moderate growth; +/− means poor growth; NG means no growth
Procedure: as §3, §4, §5

[5] = system: Burkholderia cepacia (NCTC 10743); assay: as above; parameters: key to growth: ++ means good growth; + means moderate growth; +/− means poor growth; NG means no growth
Procedure: as §3, §4, §5

[6] = system: Serratia marcescens (NCTC 10211); assay: as above; parameters: key to growth: ++ means good growth; + means moderate growth; +/− means poor growth; NG means no growth
Procedure: as §3, §4, §5

[7] = system: Escherichia coli O157 (NCTC 12079); assay: as above; parameters: key to growth: ++ means good growth; + means moderate growth; +/− means poor growth; NG means no growth
Procedure: as §3, §4, §5

[8] = system: Salmonella typhimurium (NCTC 74); assay: as above; parameters: key to growth: ++ means good growth; + means moderate growth; +/− means poor growth; NG means no growth
Procedure: as §3, §4, §5

[9] = system: Enterococcus faecium (NCTC 7171); assay: as above; parameters: key to growth: ++ means good growth; + means moderate growth; +/− means poor growth; NG means no growth
Procedure: as §3, §4, §5

[10] = system: Staphylococcus aureus (NCTC 11939); assay: as above; parameters: key to growth: ++ means good growth; + means moderate growth; +/− means poor growth; NG means no growth
Procedure: as §3, §4, §5

[11] = system: Enterobacter cloacae (NCTC 11936); assay: as above; parameters: key to growth: ++ means good growth; + means moderate growth; +/− means poor growth; NG means no growth
Procedure: as §3, §4, §5

[12] = system: Salmonella poona (NCTC 4840); assay: as above; parameters: key to growth: ++ means good growth; + means moderate growth; +/− means poor growth; NG means no growth
Procedure: as §3, §4, §5

[13] = system: Enterococcus faecalis (NCTC 12697); assay: as above; parameters: key to growth: ++ means good growth; + means moderate growth; +/− means poor growth; NG means no growth
Procedure: as §3, §4, §5

[14] = system: Pseudomonas aeruginosa (NCTC 10662); assay: as above; parameters: key to growth: ++ means good growth; + means moderate growth; +/− means poor growth; NG means no growth
Procedure: as §3, §4, §5

[15] = system: Klebsiella pneumonia (NCTC 10896); assay: as above; parameters: key to growth: ++ means good growth; + means moderate growth; +/− means poor growth; NG means no growth
Procedure: as §3, §4, §5

[16] = system: Enterococcus faecalis (NCTC 755); assay: as above; parameters: key: ++ means good growth; + means moderate growth; +/− means poor growth; NG means no growth
Procedure: as §3, §4, §5

[17] = system: Escherichia coli (NCTC 14018); assay: as above; parameters: key: ++ means good growth; + means moderate growth; +/− means poor growth; NG means no growth
Procedure: as §3, §4, §5

[18] = system: Staphylococcus aureus (NCTC 6571); assay: as above; parameters: key: ++ means good growth; + means moderate growth; +/− means poor growth; NG means no growth
Procedure: as §3, §4, §5

O=C(Nc1ccc(-c2c3ccccc3nc3ccccc23)cc1)[C@@H]1CCCN1 [L-Pro-4-APA, L-Prolyl-9-(4-aminophenyl)acridine]
3: Intensity (Candida glabrata (051); after GAA) | Intensity (Candida krusei (026); after GAA) | Intensity (Candida albicans (138); after GAA)
yellow: Color (Candida glabrata (051); after GAA) | Color (Candida glabrata (051); before GAA) | Color (Candida krusei (026); after GAA) | Color (Candida krusei (026); before GAA) | Color ([2]; after GAA) | Color (Candida albicans (138); after GAA) | Color (Candida albicans (138); before GAA)
no growth: Color ([1]; after GAA) | Color ([1]; before GAA) | Color (Candida lusitaniae (045); after GAA) | Color (Candida lusitaniae (045); before GAA)
white: Color ([2]; before GAA)
2: Intensity (Candida glabrata (051); before GAA) | Intensity ([2]; after GAA) | Intensity (Candida albicans (138); before GAA)
1: Intensity (Candida krusei (026); before GAA)

C[n+]1c2ccccc2c(-c2ccc(NC(=O)CN)cc2)c2ccccc21.[Cl-] [G-4-AP-10-MA, glycyl-9-(4-aminophenyl)-10-methylacridine]
++: growth ([4]; 24 h) | growth ([4]; 48 h) | growth ([5]; 24 h) | growth ([5]; 48 h) | growth ([6]; 24 h) | growth ([6]; 48 h) | growth ([7]; 24 h) | growth ([7]; 48 h) | growth ([8]; 48 h) | growth ([11]; 24 h) | growth ([11]; 48 h) | growth ([12]; 24 h) | growth ([12]; 48 h) | growth ([14]; 48 h) | growth ([15]; 24 h) | growth ([15]; 48 h)
Colorless: color of colonies ([3]; 24 h) | color of colonies ([3]; 48 h) | color of colonies ([9]; 24 h) | color of colonies ([9]; 48 h) | color of colonies ([10]; 24 h) | color of colonies ([10]; 48 h) | color of colonies ([13]; 24 h) | color of colonies ([13]; 48 h)
Pale orange: color of colonies ([8]; 24 h) | color of colonies ([8]; 48 h) | color of colonies ([14]; 24 h)
(++): growth ([8]; 24 h) | growth ([14]; 24 h)
+: growth ([3]; 24 h) | growth ([3]; 48 h) | growth ([9]; 24 h) | growth ([9]; 48 h) | growth ([10]; 24 h) | growth ([10]; 48 h) | growth ([13]; 24 h) | growth ([13]; 48 h)
NG: growth ([16]; 24 h) | growth ([16]; 48 h) | growth ([17]; 24 h) | growth ([17]; 48 h) | growth ([18]; 24 h) | growth ([18]; 48 h)
Orange: color of colonies ([4]; 24 h) | color of colonies ([4]; 48 h) | color of colonies ([5]; 24 h) | color of colonies ([5]; 48 h) | color of colonies ([6]; 24 h) | color of colonies ([6]; 48 h) | color of colonies ([7]; 24 h) | color of colonies ([7]; 48 h) | color of colonies ([11]; 24 h) | color of colonies ([11]; 48 h) | color of colonies ([12]; 24 h) | color of colonies ([12]; 48 h) | color of colonies ([14]; 48 h) | color of colonies ([15]; 24 h) | color of colonies ([15]; 48 h)

— US7223865B2, “Chromogenic compounds, and use thereof as enzyme substrates” (Biomerieux, priority 2003, dated 2007)
